Laboratory results: US20210346326A1, “COMPOSITIONS AND METHODS FOR ALTERING NEUTROPHIL MIGRATION AND METASTASIS” (The Wistar Institute of Anatomy and Biology, priority 2018, published 2021)
Read-outs that look alike come from different tables or passages of the source.

Experiments:
[1] = tested on: BM neutrophils from control mice; test: Transwell assay of spontaneous migration of control neutrophils; assay type: cell-based, mouse
Description: (§1) FIG. 7A-FIG. 7H. PM-LC spontaneous migration is dependent upon pannexin-1 hemichannels, extracellular ATP, and P2X and P2Y receptors. (FIG. 7A) Transwell assays evaluating the ability of PM-LC from one-week LL2 mice (left) (n=3) and RET mice (right) (n=5) to spontaneously migrate upon pannexin-1 hemichannel inhibition (panx). (FIG. 7B) Transwell assays evaluating the ability of neutrophils from control mice (n=8) and PM-LC from one-week LL2 mice (n=10) to spontaneously migrate upon apyrase treatment. […] In addition, the ability of PM-LC from RET melanoma mice (n=3) to spontaneously migrate was also evaluated in the presence of P2Y inhibitors MRS2179 and AR-C118925XX. […] P values are calculated in two-sided Student's t-test. *−p<0.05; **−p<0.01; ***−p<0.001 (FIG. 7H) pMLC2 in BM neutrophils isolated from naive mice and one-week LL2 TB mice. […]
(§2) Unstimulated migration and chemotaxis was measured using a 3 μm pore transwell system (Neuro Probe Inc. or Sigma-Aldrich). […] 10 μl media was taken from the bottom wells and counted by hemocytometer. The quantification of migrated neutrophils was done using the formula N=n×10^4×0.029 reflecting 29 µl media in the bottom well.

[2] = tested on: PMN-MDSC from 3-week LL2 mice; test: Transwell assay of migration of PMN-MDSC; assay type: cell-based, mouse; settings: different concentrations of ADP
Description: as §1, §2

PM-LC = test: Transwell assay of spontaneous migration of PM-LC; assay type: cell-based, mouse; settings: for spontaneous migration of PM-LC: PM-LC from one-week LL2 TB mice, agent 10 min prior to plating, 1 hour
Description: FIG. 7A-FIG. 7H. PM-LC spontaneous migration is dependent upon pannexin-1 hemichannels, extracellular ATP, and P2X and P2Y receptors. (FIG. 7A) Transwell assays evaluating the ability of PM-LC from one-week LL2 mice (left) (n=3) and RET mice (right) (n=5) to spontaneously migrate upon pannexin-1 hemichannel inhibition (panx). (FIG. 7B) Transwell assays evaluating the ability of neutrophils from control mice (n=8) and PM-LC from one-week LL2 mice (n=10) to spontaneously migrate upon apyrase treatment. (FIG. 7C-FIG. 7F) Transwell assays evaluating the ability of neutrophils from control mice (n=6) and PM-LC from one-week LL2 mice (n=7) to spontaneously migrate upon pan P2R inhibitor, P2XR, P2X1, P2Y, and A3R inhibition with suramin, NF449, MRS2179, AR-C118925XX, and MRS 1191, respectively. In addition, the ability of PM-LC from RET melanoma mice (n=3) to spontaneously migrate was also evaluated in the presence of P2Y inhibitors MRS2179 and AR-C118925XX. Individual values and mean and SD are shown. (FIG. 7G) Migration of BM neutrophils from control mice (n=3) and PMN-MDSC from 3-week LL2 mice (n=3) in response to stimulation with different concentrations of ADP. Mean and SD are shown. P values are calculated in two-sided Student's t-test. *−p<0.05; **−p<0.01; ***−p<0.001 (FIG. 7H) pMLC2 in BM neutrophils isolated from naive mice and one-week LL2 TB mice. Experiments were performed three times with similar results.
Unstimulated migration and chemotaxis was measured using a 3 μm pore transwell system (Neuro Probe Inc. or Sigma-Aldrich). Advanced RPMI with CXCL1 (BioLegend) or fMLP (Sigma-Aldrich) was placed in the bottom of the transwell, as indicated. 0.1×10^6 or 0.5×10^6 cells were incubated with pannexin inhibitor (^10Panx; Tocris), scrambled ^10Panx (Tocris), pan-P2XR inhibitor suramin (R&D Systems), P2X1 inhibitor NF 449 (Tocris), A3R inhibitor MRS 1191 (Santa Cruz), or apyrase (New England Biolabs) in Advanced RPMI for 10 min prior to being plated on top of the Neuro Probe system or Sigma-Aldrich system filter, respectively, and placed at 37° C., 5% CO2 for 1 hour. 10 μl media was taken from the bottom wells and counted by hemocytometer. The quantification of migrated neutrophils was done using the formula N=n×10^4×0.029 reflecting 29 µl media in the bottom well.

pMLC2 = pMLC2 Western blot in PM-LC; assay type: cell-based, mouse; settings: PM-LC from one-week LL2 TB mice; treated 1 hour before Western blot
Procedure: FIG. 15A-FIG. 15E. Expression of F-actin and genes associated with the glycolytic pathway. (FIG. 15A) Expression of indicated genes in neutrophils from control and RET melanoma mice measured in real-time quantitative PCR (n=3). Individual results for each mouse, mean and SD are shown. (FIG. 15B) F-actin was measured using flow cytometry before and after stimulation with CXCL1 or fMLP in BM neutrophils from indicated tumor models. Typical example of 4 experiments is shown. (FIG. 15C) F-actin in unstimulated cells evaluated by flow cytometry. Individual results for each mouse, mean and SD are shown. (FIG. 15D) F-actin in neutrophils and PMN-MDSC measured by flow cytometry (n=4). Individual results for each mouse, mean and SD are shown. Significant p values in two-sided Student's t-test are shown. (FIG. 15E) pMLC2 in neutrophils from control tumor-free and one-week LLC TB mice. Neutrophils were treated with vehicle alone or with P2Y2 inhibitor (ARC) for 1 hour before Western blot analysis. Two experiments with similar results were performed.

P2Y1 receptor = P2Y1 receptor (Homo sapiens, UniProt P47900); settings: in vitro; cited from earlier work
Sequence of P2Y1 receptor (P47900 whole entry): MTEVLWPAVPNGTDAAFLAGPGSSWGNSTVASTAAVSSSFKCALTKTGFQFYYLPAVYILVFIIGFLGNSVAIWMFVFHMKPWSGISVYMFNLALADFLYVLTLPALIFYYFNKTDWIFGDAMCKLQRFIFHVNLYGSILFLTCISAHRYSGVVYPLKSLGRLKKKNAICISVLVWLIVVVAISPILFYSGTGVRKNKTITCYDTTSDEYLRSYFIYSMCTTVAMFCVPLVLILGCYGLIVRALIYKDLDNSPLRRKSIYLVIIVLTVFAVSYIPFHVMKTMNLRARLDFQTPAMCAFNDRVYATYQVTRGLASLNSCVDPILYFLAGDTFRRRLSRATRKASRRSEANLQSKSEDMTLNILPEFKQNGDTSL

[3] = rats, compared to controls; cited from earlier work
[4] = mice, compared to controls; cited from earlier work
[5] = tested on: P2 receptors such as P2X3, P2Y1, and P2Y2, P2X1; settings: cited from earlier work

For `Nc1ncnc2c1ncn2[C@@H]1O[C@H](COP(=O)(O)OP(=O)(O)O)[C@@H](O)[C@H]1O` [ADP], the “migration of control neutrophils on stimulation” value ([1]; BM neutrophils from control mice, different concentrations of ADP) was “significantly increased migration” and the “migration of PMN-MDSC on stimulation” value [2] was “significantly increased migration”.

With `Cc1ccc2c(c1)C=Cc1cc(C)ccc1C2c1cn(Cc2ccc(C(=O)Nc3nn[nH]n3)o2)c(=O)[nH]c1=S` [AR-C118925XX, 5-[[5-(2,8-Dimethyl-5H-dibenzo[a,d]cyclohepten-5-yl)-3,4-dihydro-2-oxo-4-thioxo-1(2H)-pyrimidinyl]methyl]-N-2H-tetrazol-5-yl-2-furancarboxamide] the “spontaneous migration of PM-LC” value (PM-LC) was “completely abrogated the increased spontaneous migration” and the “up-regulation of pMLC2 in PM-LC” value (pMLC2) was “abrogated”.

For `CNc1ncnc2c1ncn2[C@H]1C[C@H](OP(=O)(O)O)[C@@H](COP(=O)(O)O)O1.N` [MRS2179, 3′-adenylic acid, 2′-deoxy-N-methyl-5′-(dihydrogen phosphate), ammonium salt], the “spontaneous migration of PM-LC” value (PM-LC) is given as “completely abrogated the increased spontaneous migration”, the “pA2, inhibition of ADP-induced platelet shape change and aggregation” value (P2Y1 receptor) is given as 6.55 and the bleeding time [3] is given as “prolongs bleeding time”. For the same compound, the bleeding time [4] was “prolongs bleeding time”.

With `CCOC(=O)C1=C(C)NC(c2ccccc2)=C(C(=O)OCc2ccccc2)C1C#Cc1ccccc1` (centres unmarked) [MRS 1191] the “spontaneous migration of PM-LC” value (PM-LC) was “did not affect”.

For `O=C(Nc1cc(C(=O)Nc2ccc(S(=O)(=O)[O-])cc2S(=O)(=O)[O-])cc(C(=O)Nc2ccc(S(=O)(=O)[O-])cc2S(=O)(=O)[O-])c1)Nc1cc(C(=O)Nc2ccc(S(=O)(=O)[O-])cc2S(=O)(=O)[O-])cc(C(=O)Nc2ccc(S(=O)(=O)[O-])cc2S(=O)(=O)[O-])c1.[Na+].[Na+].[Na+].[Na+].[Na+].[Na+].[Na+].[Na+]` [NF449, 4,4′,4″,4″′-[Carbonylbis(imino-5,1,3-benzenetriyl-bis(carbonylimino))]tetrakis-1,3-benzen edisulfonic acid octasodium salt], the “inhibition of the ability of PM-LCs to spontaneously migrate” value (PM-LC; PM-LC from one-week LL2 mice) is listed as 50% and the “selectivity among P2 receptors” value [5] is listed as “highest selectivity towards P2X1”.

In the case of `Cc1ccc(C(=O)Nc2ccc(S(=O)(=O)O)c3cc(S(=O)(=O)O)cc(S(=O)(=O)O)c23)cc1NC(=O)c1cccc(NC(=O)Nc2cccc(C(=O)Nc3cc(C(=O)Nc4ccc(S(=O)(=O)O)c5cc(S(=O)(=O)O)cc(S(=O)(=O)O)c45)ccc3C)c2)c1` [suramin], the “spontaneous migration of PM-LC” value (PM-LC) is reported as “completely abrogated”.

For apyrase, the “spontaneous migration of PM-LC” value (PM-LC) was “completely abrogated” and the “spontaneous migration of control neutrophils” value ([1]; neutrophils from control mice, Transwell) was “completely abrogated”.
